Reference: PMC4286194 (Biochemical Journal, 2015)

Assays:
[1] = target: PDGFRA (Homo sapiens, UniProt P16234); test: Kinase profiling; format: biochemical
[2] = target: PRK2 (Homo sapiens, UniProt Q16513); test: Kinase profiling; format: biochemical
[3] = target: T1, PINK (Tribolium castaneum, UniProt D6WMX4); test: Kinase profiling; format: biochemical
T1 sequence (D6WMX4 1-570): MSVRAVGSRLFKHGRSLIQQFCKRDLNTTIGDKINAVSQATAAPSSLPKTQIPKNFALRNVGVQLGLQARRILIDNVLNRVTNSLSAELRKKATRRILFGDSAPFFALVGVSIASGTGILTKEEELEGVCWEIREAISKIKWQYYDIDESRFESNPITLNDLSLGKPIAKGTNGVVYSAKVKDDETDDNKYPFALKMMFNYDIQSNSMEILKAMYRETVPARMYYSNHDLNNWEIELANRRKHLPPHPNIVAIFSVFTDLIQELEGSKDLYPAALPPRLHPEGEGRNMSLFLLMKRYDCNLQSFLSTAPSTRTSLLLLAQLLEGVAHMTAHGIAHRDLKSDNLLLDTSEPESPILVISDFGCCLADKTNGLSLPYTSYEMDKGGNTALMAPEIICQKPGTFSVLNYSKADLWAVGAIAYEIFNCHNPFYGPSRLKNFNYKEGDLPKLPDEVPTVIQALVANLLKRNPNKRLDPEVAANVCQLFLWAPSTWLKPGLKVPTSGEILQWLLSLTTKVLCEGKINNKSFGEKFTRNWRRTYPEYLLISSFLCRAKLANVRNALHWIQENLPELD

[4] = target: CSK (Homo sapiens, UniProt P41240); test: Kinase profiling; format: biochemical
[5] = target: T2, IRAK4 (Homo sapiens, UniProt Q9NWZ3); test: Kinase profiling; format: biochemical
T2 sequence (Q9NWZ3 1-460): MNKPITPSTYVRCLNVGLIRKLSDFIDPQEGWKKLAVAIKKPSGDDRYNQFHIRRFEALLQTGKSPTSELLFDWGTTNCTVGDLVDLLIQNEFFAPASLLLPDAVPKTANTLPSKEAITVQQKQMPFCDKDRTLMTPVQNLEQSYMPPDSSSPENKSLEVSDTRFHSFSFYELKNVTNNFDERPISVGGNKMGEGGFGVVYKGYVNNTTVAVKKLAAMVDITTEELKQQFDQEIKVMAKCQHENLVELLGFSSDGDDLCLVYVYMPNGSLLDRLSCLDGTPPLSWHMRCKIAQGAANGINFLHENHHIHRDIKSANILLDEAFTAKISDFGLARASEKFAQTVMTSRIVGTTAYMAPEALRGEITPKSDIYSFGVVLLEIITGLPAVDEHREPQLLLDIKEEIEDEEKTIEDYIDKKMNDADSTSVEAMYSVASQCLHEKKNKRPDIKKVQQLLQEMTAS

[6] = target: TESK1 (Homo sapiens, UniProt Q15569); test: Kinase profiling; format: biochemical
[7] = target: MARK2 (Homo sapiens, UniProt Q7KZI7); test: Kinase profiling; format: biochemical
[8] = test system: Bone-marrow-derived macrophages; test: IL-10 secretion (BIOPLEX) in LPS-stimulated macrophages; format: cell-based, mouse; details: for EC50: Mus musculus, Macrophage, read-out: EC50 for elevation of IL-10 secretion; for IL-10 production at optimal dose: dasatinib 300 nM, bosutinib 3 μM, HG-9-91-01 500 nM, LPS-stimulated
Protocol: The concentration of TNFα, IL-6, IL-10 and IL-12p40 in cell-free culture supernatants were measured using the Bio-Plex Pro Assay system (Bio-Rad).

[9] = target: RIPK2 (Homo sapiens, UniProt O43353); test: Kinase profiling; format: biochemical
[10] = target: TrkA (Homo sapiens, UniProt P04629); test: Kinase profiling; format: biochemical
[11] = target: TTBK2 (Homo sapiens, UniProt Q6IQ55); test: Kinase profiling; format: biochemical
[12] = target: MEKK1 (Homo sapiens, UniProt Q13233); test: Kinase profiling; format: biochemical
[13] = target: T3, DDR2 (Homo sapiens, UniProt Q16832); test: Kinase profiling; format: biochemical
T3 sequence (Q16832 22-855): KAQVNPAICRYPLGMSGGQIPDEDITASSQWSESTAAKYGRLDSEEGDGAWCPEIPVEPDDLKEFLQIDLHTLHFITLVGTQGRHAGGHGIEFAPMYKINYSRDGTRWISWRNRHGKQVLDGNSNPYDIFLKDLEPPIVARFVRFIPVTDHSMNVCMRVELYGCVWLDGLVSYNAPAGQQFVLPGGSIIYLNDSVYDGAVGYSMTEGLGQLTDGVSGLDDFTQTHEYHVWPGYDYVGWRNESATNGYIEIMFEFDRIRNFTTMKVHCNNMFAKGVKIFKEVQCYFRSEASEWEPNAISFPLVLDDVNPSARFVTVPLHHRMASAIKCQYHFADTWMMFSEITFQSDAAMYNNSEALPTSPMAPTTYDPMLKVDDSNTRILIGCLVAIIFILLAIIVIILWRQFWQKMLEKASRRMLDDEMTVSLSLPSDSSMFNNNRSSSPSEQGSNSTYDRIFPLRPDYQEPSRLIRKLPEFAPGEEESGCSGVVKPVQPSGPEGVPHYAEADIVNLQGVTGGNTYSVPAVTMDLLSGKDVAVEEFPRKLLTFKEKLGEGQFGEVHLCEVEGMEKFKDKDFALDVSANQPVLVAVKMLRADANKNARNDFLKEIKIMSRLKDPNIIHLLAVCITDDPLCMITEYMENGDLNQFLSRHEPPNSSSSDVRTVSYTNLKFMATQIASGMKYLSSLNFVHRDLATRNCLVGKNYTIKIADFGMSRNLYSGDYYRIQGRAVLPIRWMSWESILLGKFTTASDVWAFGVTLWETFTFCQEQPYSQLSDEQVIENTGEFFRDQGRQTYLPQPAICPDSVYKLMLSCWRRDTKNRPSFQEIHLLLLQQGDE

[14] = target: MKK2 (Homo sapiens, UniProt P36507); test: Kinase profiling; format: biochemical
[15] = target: PKC gamma (Homo sapiens, UniProt P05129); test: Kinase profiling; format: biochemical

Chain of RIPK2 (O43353 whole entry): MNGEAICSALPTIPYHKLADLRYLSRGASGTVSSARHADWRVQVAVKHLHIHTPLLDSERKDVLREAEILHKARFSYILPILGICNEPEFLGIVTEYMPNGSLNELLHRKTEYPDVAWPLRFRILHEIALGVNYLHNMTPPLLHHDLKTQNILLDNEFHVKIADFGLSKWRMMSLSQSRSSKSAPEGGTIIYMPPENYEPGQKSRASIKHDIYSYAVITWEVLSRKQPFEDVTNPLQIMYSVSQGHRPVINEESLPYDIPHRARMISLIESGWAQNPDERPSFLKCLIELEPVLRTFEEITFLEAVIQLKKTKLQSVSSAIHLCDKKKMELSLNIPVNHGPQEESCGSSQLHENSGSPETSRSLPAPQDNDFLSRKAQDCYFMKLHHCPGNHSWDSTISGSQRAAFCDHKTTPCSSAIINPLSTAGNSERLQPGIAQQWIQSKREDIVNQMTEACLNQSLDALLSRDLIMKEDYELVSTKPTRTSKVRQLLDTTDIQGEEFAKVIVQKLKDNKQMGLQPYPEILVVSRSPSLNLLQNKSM
Chain of MARK2 (Q7KZI7 whole entry): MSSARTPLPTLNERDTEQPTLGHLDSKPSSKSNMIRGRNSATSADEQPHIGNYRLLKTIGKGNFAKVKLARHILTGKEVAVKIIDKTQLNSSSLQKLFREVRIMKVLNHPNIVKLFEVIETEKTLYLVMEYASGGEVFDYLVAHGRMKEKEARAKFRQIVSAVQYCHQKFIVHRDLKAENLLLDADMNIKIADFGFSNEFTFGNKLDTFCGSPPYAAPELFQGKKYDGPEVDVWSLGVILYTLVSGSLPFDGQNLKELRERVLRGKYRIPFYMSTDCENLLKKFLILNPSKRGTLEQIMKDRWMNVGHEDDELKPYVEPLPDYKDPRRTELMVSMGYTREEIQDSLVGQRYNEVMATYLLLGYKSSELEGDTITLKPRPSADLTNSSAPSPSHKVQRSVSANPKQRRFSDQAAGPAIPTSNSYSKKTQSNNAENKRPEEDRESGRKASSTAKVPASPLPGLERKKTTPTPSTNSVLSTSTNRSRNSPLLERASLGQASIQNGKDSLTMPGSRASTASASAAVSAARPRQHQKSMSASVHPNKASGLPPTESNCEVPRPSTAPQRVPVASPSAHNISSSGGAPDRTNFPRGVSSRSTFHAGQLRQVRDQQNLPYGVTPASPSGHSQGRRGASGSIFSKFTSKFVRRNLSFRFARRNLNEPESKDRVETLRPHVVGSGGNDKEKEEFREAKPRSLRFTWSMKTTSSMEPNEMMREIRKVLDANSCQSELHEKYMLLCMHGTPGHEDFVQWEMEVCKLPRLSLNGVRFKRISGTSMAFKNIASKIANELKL
Chain of MKK2 (P36507 whole entry): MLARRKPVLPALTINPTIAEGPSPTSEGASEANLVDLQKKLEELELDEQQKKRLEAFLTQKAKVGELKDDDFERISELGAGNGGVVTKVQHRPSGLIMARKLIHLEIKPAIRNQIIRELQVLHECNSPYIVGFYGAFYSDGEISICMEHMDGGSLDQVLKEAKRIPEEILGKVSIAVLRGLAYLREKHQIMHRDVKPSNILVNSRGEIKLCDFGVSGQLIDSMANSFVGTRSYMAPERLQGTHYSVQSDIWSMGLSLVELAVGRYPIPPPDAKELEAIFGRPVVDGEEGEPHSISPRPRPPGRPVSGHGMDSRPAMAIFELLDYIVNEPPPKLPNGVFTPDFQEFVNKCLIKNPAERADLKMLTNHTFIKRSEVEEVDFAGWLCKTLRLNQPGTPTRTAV
Chain of CSK (P41240 whole entry): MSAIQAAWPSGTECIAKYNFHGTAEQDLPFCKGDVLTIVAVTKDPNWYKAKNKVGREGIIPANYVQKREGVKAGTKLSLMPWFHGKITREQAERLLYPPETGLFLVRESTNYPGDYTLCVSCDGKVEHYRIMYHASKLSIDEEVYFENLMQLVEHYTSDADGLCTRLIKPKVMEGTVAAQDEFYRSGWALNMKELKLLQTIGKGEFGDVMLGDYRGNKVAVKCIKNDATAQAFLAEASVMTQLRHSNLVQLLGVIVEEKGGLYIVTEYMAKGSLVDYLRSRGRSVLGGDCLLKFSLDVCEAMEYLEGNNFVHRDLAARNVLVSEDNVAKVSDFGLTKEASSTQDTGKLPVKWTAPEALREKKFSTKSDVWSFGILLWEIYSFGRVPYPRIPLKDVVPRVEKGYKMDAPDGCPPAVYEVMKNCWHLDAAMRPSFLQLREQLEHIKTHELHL
Chain of PRK2 (Q16513 whole entry): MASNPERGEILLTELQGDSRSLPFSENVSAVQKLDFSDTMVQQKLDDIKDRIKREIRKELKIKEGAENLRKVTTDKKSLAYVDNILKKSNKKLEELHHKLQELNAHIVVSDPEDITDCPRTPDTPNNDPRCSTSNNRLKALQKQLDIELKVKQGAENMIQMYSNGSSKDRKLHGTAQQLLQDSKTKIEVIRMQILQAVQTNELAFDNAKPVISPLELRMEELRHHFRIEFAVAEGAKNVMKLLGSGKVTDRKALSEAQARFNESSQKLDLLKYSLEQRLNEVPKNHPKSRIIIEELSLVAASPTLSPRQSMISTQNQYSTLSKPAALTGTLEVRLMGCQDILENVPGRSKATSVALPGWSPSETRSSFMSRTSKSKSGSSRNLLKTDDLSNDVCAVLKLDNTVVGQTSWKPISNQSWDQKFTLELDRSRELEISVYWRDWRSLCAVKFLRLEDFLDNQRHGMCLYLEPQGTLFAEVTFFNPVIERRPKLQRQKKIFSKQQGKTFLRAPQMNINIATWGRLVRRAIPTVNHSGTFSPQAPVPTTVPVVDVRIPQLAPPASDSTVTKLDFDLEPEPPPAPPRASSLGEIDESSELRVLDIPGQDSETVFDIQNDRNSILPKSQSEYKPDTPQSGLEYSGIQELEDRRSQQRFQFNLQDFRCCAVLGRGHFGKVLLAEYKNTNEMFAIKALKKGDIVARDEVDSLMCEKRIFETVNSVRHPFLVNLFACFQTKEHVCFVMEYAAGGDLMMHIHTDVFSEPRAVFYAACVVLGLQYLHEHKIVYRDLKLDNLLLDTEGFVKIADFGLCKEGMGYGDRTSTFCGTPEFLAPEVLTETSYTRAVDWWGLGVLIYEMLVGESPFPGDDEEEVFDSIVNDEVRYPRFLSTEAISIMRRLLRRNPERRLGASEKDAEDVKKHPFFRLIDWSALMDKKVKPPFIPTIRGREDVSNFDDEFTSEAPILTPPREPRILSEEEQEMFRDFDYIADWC
Chain of TTBK2 (Q6IQ55 whole entry): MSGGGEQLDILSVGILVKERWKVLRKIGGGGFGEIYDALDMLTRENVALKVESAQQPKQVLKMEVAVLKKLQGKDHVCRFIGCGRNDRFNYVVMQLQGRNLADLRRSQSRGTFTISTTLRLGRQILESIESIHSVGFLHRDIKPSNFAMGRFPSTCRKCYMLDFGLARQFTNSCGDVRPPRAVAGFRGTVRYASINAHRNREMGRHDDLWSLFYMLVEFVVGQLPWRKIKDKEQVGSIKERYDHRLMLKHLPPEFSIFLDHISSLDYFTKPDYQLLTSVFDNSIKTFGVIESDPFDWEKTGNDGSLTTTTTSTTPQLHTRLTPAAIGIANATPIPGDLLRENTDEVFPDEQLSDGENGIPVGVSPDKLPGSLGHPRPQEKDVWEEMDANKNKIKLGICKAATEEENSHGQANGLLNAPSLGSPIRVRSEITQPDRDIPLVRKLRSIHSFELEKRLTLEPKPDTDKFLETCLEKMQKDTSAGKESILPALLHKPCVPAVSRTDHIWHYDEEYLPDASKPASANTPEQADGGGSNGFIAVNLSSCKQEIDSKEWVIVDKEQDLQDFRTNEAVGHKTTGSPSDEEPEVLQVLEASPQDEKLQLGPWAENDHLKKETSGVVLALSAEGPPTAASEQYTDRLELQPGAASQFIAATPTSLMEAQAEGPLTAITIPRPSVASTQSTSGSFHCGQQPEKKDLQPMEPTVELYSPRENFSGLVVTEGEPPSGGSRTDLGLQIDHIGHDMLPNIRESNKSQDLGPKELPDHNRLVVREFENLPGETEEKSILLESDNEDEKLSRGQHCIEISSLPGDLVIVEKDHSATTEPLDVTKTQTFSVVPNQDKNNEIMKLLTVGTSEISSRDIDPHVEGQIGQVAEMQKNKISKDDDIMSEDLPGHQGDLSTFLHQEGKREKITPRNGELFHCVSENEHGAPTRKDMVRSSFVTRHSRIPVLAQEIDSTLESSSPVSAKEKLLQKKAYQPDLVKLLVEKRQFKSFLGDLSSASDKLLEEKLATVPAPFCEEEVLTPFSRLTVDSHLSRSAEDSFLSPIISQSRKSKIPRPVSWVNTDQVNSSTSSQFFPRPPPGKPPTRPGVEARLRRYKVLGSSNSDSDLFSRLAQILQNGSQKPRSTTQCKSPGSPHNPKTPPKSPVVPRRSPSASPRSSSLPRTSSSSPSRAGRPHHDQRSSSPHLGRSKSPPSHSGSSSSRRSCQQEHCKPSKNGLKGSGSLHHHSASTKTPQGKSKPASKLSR
Chain of TESK1 (Q15569 whole entry): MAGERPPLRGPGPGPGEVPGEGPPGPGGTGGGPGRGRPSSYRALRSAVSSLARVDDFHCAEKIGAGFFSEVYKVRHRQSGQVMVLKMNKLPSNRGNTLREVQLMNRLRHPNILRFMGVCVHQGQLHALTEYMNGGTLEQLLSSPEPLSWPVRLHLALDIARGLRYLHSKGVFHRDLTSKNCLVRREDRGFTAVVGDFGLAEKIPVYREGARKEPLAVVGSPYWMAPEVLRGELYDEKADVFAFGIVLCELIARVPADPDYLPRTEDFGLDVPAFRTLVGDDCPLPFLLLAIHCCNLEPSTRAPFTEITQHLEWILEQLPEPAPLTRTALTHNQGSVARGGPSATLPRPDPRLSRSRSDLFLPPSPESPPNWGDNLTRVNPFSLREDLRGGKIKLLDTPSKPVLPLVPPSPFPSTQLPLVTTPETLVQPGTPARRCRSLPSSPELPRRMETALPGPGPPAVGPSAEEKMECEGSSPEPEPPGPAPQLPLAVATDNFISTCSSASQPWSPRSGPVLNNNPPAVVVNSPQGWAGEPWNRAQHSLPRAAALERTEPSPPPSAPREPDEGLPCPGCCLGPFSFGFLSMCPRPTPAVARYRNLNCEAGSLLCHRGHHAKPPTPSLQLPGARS

COc1cc(Nc2c(C#N)cnc3cc(OCCCN4CCN(C)CC4)c(OC)cc23)c(Cl)cc1Cl [Bosutinib, bosutinib] gave a remaining activity at 0.1 µM [1] of 96 ± 1%, a remaining activity at 1 µM ([1]; 1 µM) of 79% and a remaining activity at 0.1 µM [2] of 86 ± 6%. For the same compound, the remaining activity at 1 µM [2] was 56 ± 3%, the remaining activity at 0.1 µM [3] was 112 ± 9% and the remaining activity at 1 µM [3] was 125 ± 13%. The remaining activity at 0.1 µM [4] was 65 ± 7%, the remaining activity at 1 µM [4] was 4% and the remaining activity at 0.1 µM [5] was 55 ± 3%. The remaining activity at 1 µM [5] was 23%, the remaining activity at 0.1 µM [6] was 82 ± 15% and the remaining activity at 1 µM [6] was 61 ± 2%. For the same compound, the remaining activity at 0.1 µM [7] was 89 ± 8%, the remaining activity at 1 µM [7] was 68 ± 1% and the EC50 [8] was 510 nM. The “IL-10 production at optimal dose” value [8] was “induced IL-10 production to similar levels as HG-9-91-01”, the remaining activity at 0.1 µM [9] was 86 ± 2% and the remaining activity at 1 µM [9] was 45 ± 1%. The remaining activity at 0.1 µM [10] was 25 ± 2%, the remaining activity at 1 µM [10] was 7% and the remaining activity at 0.1 µM [11] was 87 ± 6%. For the same compound, the remaining activity at 1 µM [11] was 92 ± 6%, the remaining activity at 0.1 µM [12] was 95 ± 5% and the remaining activity at 1 µM [12] was 85 ± 6%. For the same compound, the remaining activity at 0.1 µM [13] was 22 ± 1%, the remaining activity at 1 µM [13] was 2% and the remaining activity at 0.1 µM [14] was 60 ± 3%. It also gave a remaining activity at 1 µM [14] of 21 ± 4%, a remaining activity at 0.1 µM [15] of 88 ± 6% and a remaining activity at 1 µM [15] of 102 ± 5%.

With Cc1nc(Nc2ncc(C(=O)Nc3c(C)cccc3Cl)s2)cc(N2CCN(CCO)CC2)n1 [Dasatinib] the remaining activity at 0.1 µM [1] was 6 ± 1%, the remaining activity at 0.1 µM [2] was 100 ± 2% and the remaining activity at 1 µM [2] was 101%. For the same compound, the remaining activity at 0.1 µM [3] was 117 ± 1%, the remaining activity at 1 µM [3] was 133 ± 5% and the remaining activity at 0.1 µM [4] was 97 ± 19%. It also gave a remaining activity at 1 µM [4] of 8 ± 3%, a remaining activity at 0.1 µM [5] of 112 ± 24% and a remaining activity at 1 µM [5] of 102 ± 6%. For the same compound, the remaining activity at 0.1 µM [6] was 50 ± 3%, the remaining activity at 1 µM [6] was 8% and the remaining activity at 0.1 µM [7] was 118 ± 4%. For the same compound, the remaining activity at 1 µM [7] was 126 ± 2%, the EC50 [8] was 110 nM and the “IL-10 production at optimal dose” value [8] was “induced IL-10 production to similar levels as HG-9-91-01”. For the same compound, the remaining activity at 0.1 µM [9] was 5%, the remaining activity at 1 µM [9] was 10 ± 12% and the remaining activity at 0.1 µM [10] was 107 ± 11%. It also gave a remaining activity at 1 µM [10] of 88 ± 2%, a remaining activity at 0.1 µM [11] of 110 ± 5% and a remaining activity at 1 µM [11] of 117 ± 7%. The remaining activity at 0.1 µM [12] was 98 ± 4%, the remaining activity at 1 µM [12] was 102 ± 1% and the remaining activity at 0.1 µM [13] was 1 ± 1%. The remaining activity at 1 µM [13] was 0%, the remaining activity at 0.1 µM [14] was 113 ± 11% and the remaining activity at 1 µM [14] was 91%. It also gave a remaining activity at 0.1 µM [15] of 107 ± 22% and a remaining activity at 1 µM [15] of 114 ± 22%.
